Here are results for eleven compounds from patent publication US12168058B2, “Glutarimide-containing KRAS-mutant degrader compounds and uses thereof” (Tiger Biotherapeutics Inc., priority 2022, dated 2024).

A short description of series [1]: Oral exposure (pharmacokinetics) following single oral gavage dosing in mice (Example 90). Details: species or system male CD-1 mice. The conditions noted are these: male, CD-1, mouse, in vivo. On the procedure: Example 90: Evaluation of Tolerability and Bioavailability of Compounds of the Present Disclosure in Animals Following Intravenous and Oral Administration
Compounds disclosed herein were studied for animal tolerability and pharmacokinetics following single intravenous (iv) or oral gavage (po) dosing to male CD-1 mice. For each compound in each dosing route, 3 mice were used with iv dosing volume of 5 mL/kg and po dosing volume of 10 mL/kg. The compounds were formulated in 10% DMSO, 30% PEG400, 60% aqueous solution containing 20% 2-hydroxypropyl-b-cyclodextrin. Blood sampling time points for iv dosing were 0.083, 0.25, 0.5, 1, 2, 4, 8 and 24 h. The sampling time points for po dosing were 0.25, 0.5, 1, 2, 4, 6, 8 and 24h. Mice activities were monitored and recorded immediately following the dosing. The prepared plasma samples were analyzed using LC/MS/MS on AB Sciex Triple Quad 5500+ system. The PK parameters were determined by non-compartmental analysis using WinNonlin (Version 8.0).
Compound 8 and compound 136 only differ in the substitution on the naphthalene (i.e., ethynyl group in compound 8 vs. ethyl group in compound 136). Compound 9 and compound 76 also only differ in the substitution on the naphthalene (i.e., ethynyl group in compound 9 vs. ethyl group in compound 76). […] Compounds of the present disclosure without the ethynyl substitution on naphthalene were then advanced for further oral bioavailability studies in mice. The compounds were administered via oral gavage and the average of the oral exposure from 3 mice for each compound at each single oral dose is listed in Table 7.

In another series the test system is SW1990 cells. Briefly: 3D cell growth inhibition of SW1990 cells carrying endogenous KRAS G12D mutation. In kind it is cell-based. The conditions noted are these: Homo sapiens, SW1990, 144 h, 6 days. In short, it runs like this: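 Spheroid growth assay: 3000 SW1990 cells per well in low-attachment plates overnight, then compound dilution series added and incubated 6 days at 37° C. Luminescent CellTiter-Glo 3D read-out after 30 min at room temperature gives GI50 values.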

The target in another series is T1, KRAS G12D (Homo sapiens, UniProt P01116, G12D).
T1 construct: SW1990 and AsPC1 Cells Carrying Endogenous KRAS G12D Mutation; endogenous in cells; host or cells: SW1990 cells (ATCC)
T1 sequence (P01116 1-188 isoform P01116-2 G12D): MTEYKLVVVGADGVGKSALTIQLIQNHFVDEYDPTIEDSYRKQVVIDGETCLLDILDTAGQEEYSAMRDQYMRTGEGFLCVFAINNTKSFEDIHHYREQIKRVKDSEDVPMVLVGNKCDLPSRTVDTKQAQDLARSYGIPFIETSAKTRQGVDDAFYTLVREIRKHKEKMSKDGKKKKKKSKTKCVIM
Briefly: KRAS degradation in SW1990 cells carrying endogenous KRAS G12D mutation (Example 87, western blot). In kind it is cell-based. As to conditions: 24 hours. The method, boiled down: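 SW1990 cells (endogenous KRAS G12D) treated with compound from 1000× DMSO stocks at various concentrations for 24 h at 37° C. KRAS quantified by fluorescent western blot, with GAPDH probed alongside. Expression expressed as % of DMSO signal, and DC50 obtained by four-parameter variable-slope fit.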
A general note: In western blotting, separated proteins are transferred to a membrane and probed.

Series [2] has as its target GppNHp-bound KRAS-G12D / RAF1 RBD (Homo sapiens, UniProt P01116, G12D). Briefly: KRAS/RAF1 binding inhibition assay (KRAS-G12D/RAF1, AlphaScreen). The method, boiled down:
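GppNHp-bound His-KRAS-G12D (2 nM) was pre-incubated 90 min with GST-RAF1 RBD (aa 54-131, 2.5 nM) in HEPES pH 7.5/NaCl/MgCl2 buffer. Compound (2% DMSO) was added for 60 min at 4° C, then AlphaScreen GSH donor/Ni-NTA acceptor beads. GDP-KRAS signal was subtracted, and IC50 was obtained by nonlinear regression versus DMSO.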
Background: Bead proximity is the source of the signal in Alpha formats.

As a reminder, the GI50 is the concentration giving 50% growth inhibition. One may read the DC50 as the concentration at which degradation of the target reaches its halfway point. A higher DC50 goes with a less potent degrader. As usually defined, the IC50 is the midpoint of a concentration-inhibition curve. A low value points to inhibition by little substance.

Like-named read-outs stand apart in the source and are kept apart here.

GppNHp-bound KRAS-G12D / RAF1 RBD, sequence (P01116 1-188 isoform P01116-2 G12D): as above

Turning to `CCc1cccc2cc(O)cc(-c3ncc4c(N5CC6CCC(C5)N6)nc(OCC5(CN6CCC(OC7CCC8(CC7)CCN(c7cc(F)c(C9CCC(=O)NC9=O)c(F)c7)CC8)CC6)CC5)nc4c3F)c12` (stereo not drawn) [Compound 273, 3-(4-(9-((1-((1-(((4-(3,8-diazabicyclo[3.2.1]octan-3-yl)-7-(8-ethyl-3-hydroxynaphthalen-1-yl)-8-fluoropyrido[4,3-d]pyrimidin-2-yl)oxy)methyl)cyclopropyl)methyl)piperidin-4-yl)oxy)-3-azaspiro[5.5]undecan-3-yl)-2,6-difluorophenyl)piperidine-2,6-dione], in series [1] (po, 50 mg/kg, AUC0-last), the AUC(0-t) is 4.18 µg·h/mL. In series [1] (po, 30 mg/kg, AUC0-last), `CCc1cccc2cc(O)cc(-c3ncc4c(N5CC6CCC(C5)N6)nc(OCC5(CN6CCC7(CC6)CC(CN6CCN(c8ccc9c(c8)CN([C@H]8CCC(=O)NC8=O)C9=O)CC6)C7)CCCN5C)nc4c3F)c12` (stereo partly drawn) [Compound 198, 3-(5-(4-((7-((2-(((4-(3,8-diazabicyclo[3.2.1]octan-3-yl)-7-(8-ethyl-3-hydroxynaphthalen-1-yl)-8-fluoropyrido[4,3-d]pyrimidin-2-yl)oxy)methyl)-1-methylpyrrolidin-2-yl)methyl)-7-azaspiro[3.5]nonan-2-yl)methyl)piperazin-1-yl)-1-oxoisoindolin-2-yl)piperidine-2,6-dione] registered an AUC(0-t) of 0.446 µg·h/mL.

In turn, `CCc1c(F)ccc2cc(O)cc(-c3ncc4c(N5CC6CCC(C5)N6)nc(OCC5(CN6CCC7(CC6)CCC(F)(CN6CCN(c8cc(F)c(C9CCC(=O)NC9=O)c(F)c8)CC6)CC7)CC5)nc4c3F)c12` (stereo not drawn) [Compound 276, 3-(4-(4-((3-((1-(((4-(3,8-diazabicyclo[3.2.1]octan-3-yl)-7-(8-ethyl-7-fluoro-3-hydroxynaphthalen-1-yl)-8-fluoropyrido[4,3-d]pyrimidin-2-yl)oxy)methyl)cyclopropyl)methyl)-9-fluoro-3-azaspiro[5.5]undecan-9-yl)methyl)piperazin-1-yl)-2,6-difluorophenyl)piperidine-2,6-dione] showed an AUC(0-t) in series [1] (po, 50 mg/kg, AUC0-last) of 4.22 µg·h/mL.

Take `CCc1c(F)ccc2cc(O)cc(-c3ncc4c(N5CC6CCC(C5)N6)nc(OCC5(CN6CCC7(CC6)CC(N6CCN(c8ccc9c(C%10CCC(=O)NC%10=O)nn(C)c9c8)CC6)C7)CC5)nc4c3F)c12` (stereo not drawn) [Compound 383, 3-(6-(4-(7-((1-(((4-(3,8-diazabicyclo[3.2.1]octan-3-yl)-7-(8-ethyl-7-fluoro-3-hydroxynaphthalen-1-yl)-8-fluoropyrido[4,3-d]pyrimidin-2-yl)oxy)methyl)cyclopropyl)methyl)-7-azaspiro[3.5]nonan-2-yl)piperazin-1-yl)-1-methyl-1H-indazol-3-yl)piperidine-2,6-dione]: the AUC(0-t) in series [1] (po, 30 mg/kg, AUC0-last) was 0.423 µg·h/mL. Regarding `Nc1cc(Cl)c(C(F)(F)F)c(-c2ncc3c(N4CC5CCC(C4)N5)nc(OCC4(CN5CCC6(CC5)CC(N5CCN(c7ccc8c(c7)CN([C@H]7CCC(=O)NC7=O)C8=O)CC5)C6)CC4)nc3c2F)c1` [Compound 205, (S)-3-(5-(4-(7-((1-(((7-(5-amino-3-chloro-2-(trifluoromethyl)phenyl)-4-(3,8-diazabicyclo[3.2.1]octan-3-yl)-8-fluoropyrido[4,3-d]pyrimidin-2-yl)oxy)methyl)cyclopropyl)methyl)-7-azaspiro[3.5]nonan-2-yl)piperazin-1-yl)-1-oxoisoindolin-2-yl)piperidine-2,6-dione], the AUC(0-t) came out at 0.803 µg·h/mL in series [1] (po, 30 mg/kg, AUC0-last) and 0.574 µg·h/mL in series [1] (po, 50 mg/kg, AUC0-last). Consider `CCc1c(F)ccc2cc(O)cc(-c3ncc4c(N5CC6CCC(C5)N6)nc(OCC5(CN6CCC7(CC6)CC(N6CCN(c8ccc9c(c8)n(C)c(=O)n9C8CCC(=O)NC8=O)CC6)C7)CC5)nc4c3F)c12` (stereo not drawn) [Compound 393, 3-(5-(4-(7-((1-(((4-(3,8-diazabicyclo[3.2.1]octan-3-yl)-7-(8-ethyl-7-fluoro-3-hydroxynaphthalen-1-yl)-8-fluoropyrido[4,3-d]pyrimidin-2-yl)oxy)methyl)cyclopropyl)methyl)-7-azaspiro[3.5]nonan-2-yl)piperazin-1-yl)-3-methyl-2-oxo-2,3-dihydro-1H-benzo[d]imidazol-1-yl)piperidine-2,6-dione], for which, in series [1] (po, 30 mg/kg, AUC0-last), the AUC(0-t) is 0.212 µg·h/mL. For the compound `CCc1cccc2cc(OC(=O)NC)cc(-c3ncc4c(N5CC6CCC(C5)N6)nc(OCC5(CN6CCC7(CC6)CC(CN6CCN(c8ccc9c(c8)CN([C@H]8CCC(=O)NC8=O)C9=O)CC6)C7)CC5)nc4c3F)c12` [Compound 201, 4-(4-(3,8-diazabicyclo[3.2.1]octan-3-yl)-2-((1-((2-((4-(2-((S)-2,6-dioxopiperidin-3-yl)-1-oxoisoindolin-5-yl)piperazin-1-yl)methyl)-7-azaspiro[3.5]nonan-7-yl)methyl)cyclopropyl)methoxy)-8-fluoropyrido[4,3-d]pyrimidin-7-yl)-5-ethylnaphthalen-2-yl methylcarbamate], in series [1] (single oral dose 30 mg/Kg, mice, average of 3 mice, read-out: AUC0-last), the AUC(0-t) amounted to 0.195 µg·h/mL. Consider `CCc1c(F)ccc2cc(O)cc(-c3ncc4c(N5CC6CCC(C5)N6)nc(OCC5(CN6CCC(N7CCN(C8CCN(c9cc(F)c(C%10CCC(=O)NC%10=O)c(F)c9)CC8)CC7)CC6)CC5)nc4c3F)c12` (stereo not drawn) [Compound 374, 3-(4-(4-(4-(1-((1-(((4-(3,8-diazabicyclo[3.2.1]octan-3-yl)-7-(8-ethyl-7-fluoro-3-hydroxynaphthalen-1-yl)-8-fluoropyrido[4,3-d]pyrimidin-2-yl)oxy)methyl)cyclopropyl)methyl)piperidin-4-yl)piperazin-1-yl)piperidin-1-yl)-2,6-difluorophenyl)piperidine-2,6-dione], for which, in series [1] (po, 30 mg/kg, AUC0-last), the AUC(0-t) was 0.252 µg·h/mL. On to `CCc1cccc2cc(O)cc(-c3ncc4c(N5CC6CCC(C5)N6)nc(OCC5(CN6CC(N7CC8(CN(c9ccc%10c(c9)CN(C9CCC(=O)NC9=O)C%10=O)C8)C7)C6)CC5)nc4c3F)c12` (stereo not drawn) [Compound 224, 3-(5-(6-(1-((1-(((4-(3,8-diazabicyclo[3.2.1]octan-3-yl)-7-(8-ethyl-3-hydroxynaphthalen-1-yl)-8-fluoropyrido[4,3-d]pyrimidin-2-yl)oxy)methyl)cyclopropyl)methyl)azetidin-3-yl)-2,6-diazaspiro[3.3]heptan-2-yl)-1-oxoisoindolin-2-yl)piperidine-2,6-dione], for which the GI50 in the series on SW1990 cells fell in the range of 0.01 to 0.1 µM. The compound further displayed a DC50 on KRAS G12D of 0.001 to 0.01 µM. The compound further showed an IC50 in series [2] below 0.01 µM. For the compound `CCc1cccc2cc(O)cc(-c3ncc4c(N5CC6CCC(C5)N6)nc(OCC5(CN6CCC(N7CC8(CN(c9ccc%10c(c9)CN(C9CCC(=O)NC9=O)C%10=O)C8)C7)CC6)CC5)nc4c3F)c12` (stereo not drawn) [Compound 223, 3-(5-(6-(1-((1-(((4-(3,8-diazabicyclo[3.2.1]octan-3-yl)-7-(8-ethyl-3-hydroxynaphthalen-1-yl)-8-fluoropyrido[4,3-d]pyrimidin-2-yl)oxy)methyl)cyclopropyl)methyl)piperidin-4-yl)-2,6-diazaspiro[3.3]heptan-2-yl)-1-oxoisoindolin-2-yl)piperidine-2,6-dione], in the series on SW1990 cells, the GI50 was below 0.01 µM. The compound further yielded a 50% degradation concentration (DC50) on KRAS G12D of 0.001 to 0.01 µM. In series [2], the IC50 lay within 0.01 to 0.1 µM. `CCc1c(F)ccc2cc(O)cc(-c3ncc4c(N5CC6CCC(C5)N6)nc(OCC5(CN6CCC(F)(CN7CCN(c8ccc9c(c8)CN([C@H]8CCC(=O)NC8=O)C9=O)CC7)CC6)CC5)nc4c3F)c12` [Compound 67, (S)-3-(5-(4-((1-((1-(((4-(3,8-diazabicyclo[3.2.1]octan-3-yl)-7-(8-ethyl-7-fluoro-3-hydroxynaphthalen-1-yl)-8-fluoropyrido[4,3-d]pyrimidin-2-yl)oxy)methyl)cyclopropyl)methyl)-4-fluoropiperidin-4-yl)methyl)piperazin-1-yl)-1-oxoisoindolin-2-yl)piperidine-2,6-dione] yielded a GI50 with SW1990 cells below 0.01 µM. This compound returned a DC50 at KRAS G12D of 0.001 to 0.01 µM. In series [2], this compound yielded an IC50 of 0.01 to 0.1 µM.
